The numbers were not newly measured in patent publication US20250161451A1, “ULTRASOUND-RESPONSIVE NANOSCALE DELIVERY PLATFORM FOR USE IN THE TREATMENT OF BIOFILM-ASSOCIATED DISEASES” (priority 2023, published 2025), which cites them from elsewhere.

For this data set, the system named is MRSA biofilms. The note with it: co-delivery with stimulated phase-shift nanodroplet platform, in vitro.

Take `CN[C@H](CC(C)C)C(=O)N[C@H]1C(=O)N[C@@H](CC(N)=O)C(=O)N[C@H]2C(=O)N[C@H]3C(=O)N[C@H](C(=O)N[C@H](C(=O)O)c4cc(O)cc(O)c4-c4cc3ccc4O)[C@H](O)c3ccc(c(Cl)c3)Oc3cc2cc(c3O[C@@H]2O[C@H](CO)[C@@H](O)[C@H](O)[C@H]2O[C@H]2C[C@](C)(N)[C@H](O)[C@H](C)O2)Oc2ccc(cc2Cl)[C@H]1O` [vancomycin]: the “bactericidal effect on MRSA biofilms” value was “strong but incomplete bactericidal effect”.
